Measurements as given in DBAASP.
Converted amounts (≈) assume the structure as drawn.

What was measured:
Assay in all cases: ≥ marks a high value that may be exact or a test limit, other limits are often not marked, values filed in µg/mL are converted to µM
[1] = test system: Acinetobacter baumannii ATCC 17978
[2] = test system: Bacillus megaterium ATCC 10778
[3] = test system: Bacillus subtilis ATCC 6633
Candida albicans MDM8 = test system: Candida albicans MDM8
[4] = test system: Candida tropicalis IOC 4560
[5] = test system: Enterobacter cloacae beta-12
[6] = test system: Escherichia coli NCTC 12923
Escherichia coli SBS 363 = test system: Escherichia coli SBS 363
[7] = test system: Klebsiella pneumoniae NCTC 13368
Micrococcus luteus A270 = test system: Micrococcus luteus A270
[8] = test system: Pseudomonas aeruginosa NCIB 10421
[9] = test system: Pseudomonas aeruginosa NCTC 13437
[10] = test system: Pseudomonas aeruginosa PAO1
[11] = test system: Serratia marcescens ATCC 4112
[12] = test system: Staphylococcus aureus ATCC 29213
[13] = test system: Staphylococcus aureus ATCC 9144
[14] = test system: Staphylococcus aureus USA 300
Escherichia coli BW25113 = test system: Escherichia coli BW25113
Escherichia coli J2210 = test system: Escherichia coli J2210
Escherichia coli JJ2489 = test system: Escherichia coli JJ2489
Escherichia coli JW0013 = test system: Escherichia coli JW0013
[15] = test system: Escherichia coli JW0368 ΔsbmA
[16] = test system: Escherichia coli JW2778 ΔygdD
Escherichia coli MC1041 = test system: Escherichia coli MC1041
[17] = test system: Salmonella enterica subsp. enterica serovar Enteritidis MH91989
[18] = test system: Salmonella typhimurium SL1344

Row | Structure (SMILES) | MIC [2] | MIC [3] | MIC (Candida albicans MDM8) | MIC [4] | MIC [5] | MIC (Escherichia coli SBS 363) | MIC (Micrococcus luteus A270) | MIC [8] | MIC [11] | MIC [12] | other results
1 | CC[C@H](C)[C@H](NC(=O)[C@H](CCCCN)NC(=O)[C@H](CCC(=O)O)NC(=O)[C@H](Cc1c[nH]c2ccccc12)NC(=O)[C@H](Cc1ccccc1)NC(=O)[C@H](CCCCN)NC(=O)CNC(=O)[C@H](CC(C)C)NC(=O)[C@H](C)N)C(=O)N[C@@H](CCCCN)C(=O)N[C@@H](CO)C(=O)N[C@@H](CC(C)C)C(=O)N[C@@H](Cc1ccccc1)C(N)=O [ALGKFWEKIKSLF] | 0.78 µM (≈ 1.22 µg/mL) | 0.78 µM (≈ 1.22 µg/mL) | 3.13 µM (≈ 4.9 µg/mL) | 0.78 µM (≈ 1.22 µg/mL) | 6.25 µM (≈ 9.79 µg/mL) | 1.56 µM (≈ 2.44 µg/mL) | 0.78 µM (≈ 1.22 µg/mL) | 12.5 µM (≈ 19.6 µg/mL) | 0.36 µM (≈ 0.564 µg/mL) | 3.13 µM (≈ 4.9 µg/mL) | MIC [1]: 2.55 µM (≈ 4 µg/mL); MIC [6]: 5.11 µM (≈ 8 µg/mL); MIC [7]: 10.2 µM (≈ 16 µg/mL); MIC [9]: ≥ 40.8 µM; MIC [10]: > 81.7 µM; MIC [13]: 2.55 µM (≈ 4 µg/mL); MIC [14]: 10.2 µM (≈ 16 µg/mL)
2 | CC(C)C[C@H](NC(=O)[C@H](CCCN=C(N)N)NC(=O)[C@@H]1CCCN1C(=O)[C@H](CCCN=C(N)N)NC(=O)[C@@H]1CCCN1C(=O)[C@@H]1CCCN1C(=O)[C@H](CCCN=C(N)N)NC(=O)[C@@H]1CCCN1C(=O)[C@H](CCC(N)=O)NC(=O)[C@@H]1CCCN1C(=O)[C@H](CCCN=C(N)N)NC(=O)[C@H](Cc1ccc(O)cc1)NC(=O)[C@@H](NC(=O)[C@@H]1CCCN1C(=O)[C@H](CCCCN)NC(=O)[C@H](CC(N)=O)NC(=O)[C@H](CC(N)=O)NC(=O)CN)C(C)C)C(=O)O [GNNKPVYRPQPRPPRPRL] |  |  |  |  |  |  |  |  |  |  | MIC (Escherichia coli BW25113): 0.096 µM (≈ 0.206 µg/mL); MIC (Escherichia coli J2210): 0.252 µM (≈ 0.54 µg/mL); MIC (Escherichia coli JJ2489): 0.133 µM (≈ 0.285 µg/mL); MIC (Escherichia coli JW0013): 0.096 µM (≈ 0.206 µg/mL); MIC [15]: 0.133 µM (≈ 0.285 µg/mL); MIC [16]: 0.192 µM (≈ 0.411 µg/mL); MIC (Escherichia coli MC1041): 0.126 µM (≈ 0.27 µg/mL); MIC [17]: 0.096 µM (≈ 0.206 µg/mL); MIC [18]: 0.192 µM (≈ 0.411 µg/mL)
3 | CC[C@H](C)[C@H](N)C(=O)N[C@@H](CC(C)C)C(=O)NCC(=O)N[C@@H](CCCCN)C(=O)N[C@H](C(=O)N[C@@H](Cc1c[nH]c2ccccc12)C(=O)N[C@@H](CCC(=O)O)C(=O)N1CCC[C@H]1C(=O)N[C@H](C(=O)N[C@@H](CCCCN)C(=O)N[C@@H](CO)C(=O)N[C@@H](CC(C)C)C(=O)N[C@@H](Cc1ccccc1)C(N)=O)[C@@H](C)CC)[C@@H](C)CC [ILGKIWEPIKSLF] | 3.13 µM (≈ 4.83 µg/mL) | 25 µM (≈ 38.6 µg/mL) | ≥ 50 µM | 12.5 µM (≈ 19.3 µg/mL) | ≥ 50 µM | ≥ 50 µM | 12.5 µM (≈ 19.3 µg/mL) | ≥ 50 µM | 3.13 µM (≈ 4.83 µg/mL) | 50 µM (≈ 77.1 µg/mL) | 
